Read-outs that look alike come from different tables or passages of the source.
Tests used:
RENCA tumor cells = experiment: Syngeneic Renca kidney cancer model, tumor growth and tolerability; format: in vivo
Source text: The inventors undertook a combination study of APL-101 and an anti-PD-1 antibody to evaluate the safety and efficacy of the combination. […]
(§1) Animals: female C57BL/6 mice, age 6-8 weeks and of body weight 18-20 g, were provided by Shanghai Lingchang Bio-Technology Co. Ltd.
APL-101 were provided by CBT pharmaceuticals (Apollomics, Inc.). Anti-PD 1 antibodies were supplied by BioXcell. PVP K30 were supplied by Fluka Analytical.
Cell culture: The Renca tumor cell line was maintained in vitro in DMEM medium supplemented with 10% fetal bovine serum at 37° C. in an atmosphere of 5% CO2 in air. The tumor cells were routinely subcultured twice weekly. The cells growing in an exponential growth phase were harvested and counted for tumor inoculation. […]
(§2) Observation and data collection: After tumor cells inoculation, the animals were checked daily for morbidity and mortality. During routine monitoring, the animals were checked for any effects of tumor growth and treatments on behavior such as mobility, food and water consumption, body weight gain/loss (body weights were measured twice weekly after randomization), eye/hair matting and any other abnormalities. Mortality and observed clinical signs were recorded for individual animals in detail. […] (Tumor weight were measured at the end of study). […]

[1] = 150 mg every 12 hours; 300 mg total daily dose; cited from earlier work
MC38 tumor cells = experiment: MC-38 syngeneic colon cancer model, tumor growth and tolerability; format: in vivo
Procedure: The inventors undertook a combination study of APL-101 and an anti-PD-1 antibody to evaluate the safety and efficacy of the combination. In the MC-38 colon cancer model in syngeneic mice, four groups, five animals per group received either vehicle (water at 20 mg/kg orally, once a day), APL-101 (10 mg/kg orally, once a day), anti-PD-1 (10 mg/kg intraperitoneal injection, twice a week), or APL-101 plus anti-PD-1. In the vehicle group as well as the APL-101 group, animals were dosed daily on Days 1-15 whereas in the single agent anti-PD-1 group, doses were administered on Days 1, 4, 8, 11, and 15. In the combination arm of APL-101 and anti-PD-1, APL-101 was administered on Days 5-15 (4-day delay) while the anti-PD-1 was dosed on Days 1, 4, 8, 11, and 15.
as §1
APL-101 were provided by CBT pharmaceuticals (now Apollomics, Inc.). Anti-PD 1 antibodies were supplied by BioXcell.
Cell culture: The MC38 tumor cells were thawed and maintained in vitro as a monolayer culture in DMEM medium supplemented with 10% heat inactivated fetal bovine serum at 37° C. in an atmosphere of 5% CO2 in air. […] The cells growing in an exponential growth phase were harvested and counted for tumor inoculation. […]
Group assignment: Before grouping and treatment, all animals were weighed and the tumor volumes were measured using a caliper. […]
Observation and data collection: After tumor cells inoculation, the animals were checked daily for morbidity and mortality. During routine monitoring, the animals were checked for any effects of tumor growth and treatments on normal behavior such as mobility, visual estimation of food and water consumption, body weight gain/loss (body weights were measured twice per week after randomization), eye/hair matting and any other abnormal effect. Death and observed clinical signs were recorded in the comment of datasheet for each animal in detail. […] (Tumor weight was measured at the end of study). […]

H22 tumor cells = experiment: H22 syngeneic liver cancer model, tumor growth and tolerability; format: in vivo
Procedure: The inventors undertook a combination study of APL-101 and an anti-PD-1 antibody to evaluate the safety and efficacy of the combination. In the H22 liver cancer model in syngeneic mice, four groups, ten animals per group received either vehicle (PVP K30 at 20 mg/kg orally, once a day for three weeks), APL-101 (10 mg/kg orally, once a day for three weeks), anti-PD-1 (10 mg/kg intraperitoneal injection, twice a week for three weeks), or APL-101 plus anti-PD-1.
as §1
APL-101 were provided by CBT pharmaceuticals (now Apollomics, Inc.). […]
Cell culture: The H22 tumor cell line were maintained in vitro in RPMI-1640 medium supplemented with 10% fetal bovine serum at 37° C. in an atmosphere of 5% CO2 in air. […] The cells growing in an exponential growth phase were harvested and counted for tumor inoculation. […]
as §2, with “abnormalities.” for “abnormalities. Mortality and observed clinical signs were recorded for individual animals in detail.”

[2] = 3 mg/kg IV on Day 1 and Day 15 of 28-day cycle; relapsed and refractory solid tumor subjects; cited from earlier work

Compound | body weight of treated mice (RENCA tumor cells; RENCA model, FIG. 3C, alone or in combination) | Mean percent tumor growth (RENCA tumor cells; syngeneic Renca kidney cancer model, APL-101 10 mg/kg QD x3 weeks, anti-PD-1 IP 10 mg/kg BIW x3 weeks) | dose deemed safe by Safety Review Committee [1] | Mean percent tumor growth (MC38 tumor cells; MC 38 syngeneic model, APL-101 10 mg/kg qd, anti-PD-1 Ab 10 mg/kg biw) | body weight of treated mice (MC38 tumor cells; MC-38 model, FIG. 1C, alone or in combination) | mean percent tumor growth inhibition (MC38 tumor cells; MC-38 syngeneic mice, APL-101 PO 10 mg/kg QD, anti-PD-1 IP 10 mg/kg BIW, combination x2 weeks, single agents x3 weeks) | Mean percent tumor growth (H22 tumor cells; H22 syngeneic liver cancer model, APL-101 10 mg/kg QD x3 weeks, anti-PD-1 IP 10 mg/kg BIW x3 weeks) | body weight of treated mice (H22 tumor cells; H-22 model, FIG. 2C, alone or in combination) | dose deemed safe by Safety Review Committee [2]
Cn1cc2cc(C(F)(F)c3nnc4ccc(-c5cnn(C6CC6)c5)nn34)c(F)cc2n1 [APL-101] | did not affect the body weight | 77% | safe | 35.61% | did not affect the body weight | 33.6% | 108.73% | did not affect the body weight | –
APL-501: anti-PD-1 antibody, previously named CBT-501, see WO2016/014688 | – | – | – | – | – | – | – | – | safe
